Each compound was assayed against rat MCH-1 (Rattus norvegicus, UniProt P97639) (assay: Radioligand binding assay at cloned rat MCH1 receptor ([3H] Compound A)). Conditions: cloned rat MCH1 receptor, membranes from Peakr293 cells, 0.08 nM [3H] Compound A; read-out: Ki (nM) rMCH1.
Chain of rat MCH-1 (P97639 whole entry): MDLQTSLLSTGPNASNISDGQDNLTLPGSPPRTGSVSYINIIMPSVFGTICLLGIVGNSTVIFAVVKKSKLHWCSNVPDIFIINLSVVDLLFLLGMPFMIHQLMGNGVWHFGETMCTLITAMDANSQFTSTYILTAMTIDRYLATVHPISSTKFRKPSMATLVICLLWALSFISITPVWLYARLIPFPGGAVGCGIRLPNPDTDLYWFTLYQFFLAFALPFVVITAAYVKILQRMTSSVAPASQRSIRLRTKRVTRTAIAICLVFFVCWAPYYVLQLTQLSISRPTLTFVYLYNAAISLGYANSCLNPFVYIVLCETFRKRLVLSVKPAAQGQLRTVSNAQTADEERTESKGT
Design: host or cells: Peak rapid 293 (Peakr293) cells, transient calcium phosphate transfection, membranes
Compound `Cc1onc(-c2c(Cl)cccc2Cl)c1C(=O)OCCCCN1CCC(c2cccc(NC(=O)C(C)C)c2)CC1` [Example 294, 4-{4-[3-(ISOBUTYRYLAMINO)PHENYL]-1-PIPERIDINYL}BUTYL 3-(2,6-DICHLOROPHENYL)-5-METHYL-4-ISOXAZOLECARBOXYLATE] has a Ki of 15.8 nM.
For `COc1ccc(C(CCN2CCC(c3cccc(NC(=O)C(C)C)c3)CC2)Oc2ccccc2C(C)=O)cc1` (stereo not drawn) [Example 185], the Ki was 20.6 nM.
`CC(C)C(=O)Nc1cccc(C2CCN(CCC(Oc3ccc(C(F)(F)F)cc3)c3ccc(Cl)cc3)CC2)c1` (stereo not drawn) [Example 186] was tested, and the Ki was 4.9 nM.
`CC(C)C(=O)Nc1cccc(C2CCN(CCCCCc3c(-c4ccccc4)[nH]c4c3ccc3ccccc34)CC2)c1` [Example 398] was tested, and the Ki was 13.6 nM.
`CC(C)C(=O)Nc1cccc(C2CCN(CCC(=O)c3ccccc3)CC2)c1` [Example 121] gave a Ki of 184 nM.
`CC(=O)c1cccc(OCCCCCN2CCC(c3cccc(NC(=O)C4CC4)c3)CC2)c1` [Example 382] gave a Ki of 319 nM.
Work on `Cc1ccc(C2CCN(CCCC(c3ccc(F)cc3)c3ccc(F)cc3)CC2)cc1NC(=O)C(C)C` [Example 271] yielded a Ki of 40.1 nM.
`CC(C)C(=O)Nc1cccc(C2CCN(Cc3ccc4nsnc4c3)CC2)c1` [Example 232] was tested, and the Ki was 431 nM.
Work on `Cc1ccc(OCCCCN2CCC(c3cccc(NC(=O)C(C)C)c3)CC2)cc1C` [Example 379] yielded a Ki of 204 nM.
Compound `CC(=O)c1ccccc1OC(CCN1CCC(c2cccc(NC(=O)C(C)C)c2)CC1)c1ccc(Cl)cc1` (stereo not drawn) [Example 169] has a Ki of 7.7 nM.
`CC(C)C(=O)Nc1cccc(C2CCN(CCC(Oc3cc(F)ccc3F)c3ccc(F)cc3)CC2)c1` (stereo not drawn) [Example 142] showed a Ki of 18.3 nM.
Work on `CC(=O)c1cccc(OC(CCN2CCC(c3cccc(NC(=O)C(C)C)c3)CC2)c2ccc(Br)cc2)c1` (stereo not drawn) [Example 154] yielded a Ki of 9.3 nM.
`CC(C)C(=O)Nc1cccc(C2CCN(Cc3c(OCC#N)ccc4ccccc34)CC2)c1` [Example 191] gave a Ki of 649 nM.
For `CC(C)C(=O)Nc1cccc(C2CCN(C[C@H](Oc3ccc(F)cc3)c3ccccc3)CC2)c1` [Example 337], the Ki was 907 nM.
Compound `CC(C)C(=O)Nc1cccc(C2CCN(Cc3ccc(N4CCCCC4)c([N+](=O)[O-])c3)CC2)c1` [Example 214] has a Ki of 56.3 nM.
`CC(C)C(=O)Nc1cccc(C2CCN(Cc3ccc4c(ccn4-c4ccc(F)cc4)c3)CC2)c1` [Example 101] showed a Ki of 7.8 nM.
With `CC(C)C(=O)Nc1cccc(C2CCN(C[C@@H](C)COc3ccc(Cl)cc3)CC2)c1` [Example 369] the Ki was 145 nM.
`CC(C)C(=O)Nc1cccc(C2CCN(CCCCc3c(-c4ccccc4)[nH]c4ccc(OC(F)(F)F)cc34)CC2)c1` [Example 390] gave a Ki of 1 nM.
Compound `CC(C)C(=O)Nc1cccc(C2CCN(Cc3ccc(-c4cc(C(F)(F)F)n(C)n4)s3)CC2)c1` [Example 238] has a Ki of 65.9 nM.
`CC(C)C(=O)Nc1cccc(C2CCN(CC[C@H](NC(=O)c3cccs3)c3ccccc3)CC2)c1` [Example 323] gave a Ki of 37 nM.
`CC(C)C(=O)Nc1cccc(C2CCN(Cc3cc4ccccc4s3)CC2)c1` [Example 253] gave a Ki of 362 nM.
In the case of `Cc1ccc(Sc2ccc(CN3CCC(c4cccc(NC(=O)C(C)C)c4)CC3)cc2[N+](=O)[O-])cc1` [Example 262], the Ki is reported as 64.1 nM.
For `CC(C)C(=O)Nc1cccc(C2CCN(Cc3ccc(-c4ccccc4)s3)CC2)c1` [Example 233], the Ki was 125 nM.
In the case of `CC(C)C(=O)Nc1cccc(C2CCN(CCC(O)c3ccc(Cl)cc3)CC2)c1` (stereo not drawn) [Example 124], the Ki is reported as 33 nM.
`CC(C)C(=O)Nc1cccc(C2CCN(CCC(O)c3ccc(Br)cc3)CC2)c1` (stereo not drawn) [Example 129] gave a Ki of 38.8 nM.
Compound `CC(C)C(=O)Nc1cccc(C2CCN(CC[C@H](NC(=O)c3ccc(Oc4cc(Cl)cc(Cl)c4)[nH]3)c3ccccc3)CC2)c1` [Example 318] has a Ki of 251 nM.
In the case of `Cc1c(CN2CCC(c3cccc(NC(=O)C(C)C)c3)CC2)cnn1-c1ccccc1` [Example 218], the Ki is reported as 126 nM.
Compound `CC(C)C(=O)Nc1cccc(C2CCN(CCCOc3cccc(F)c3)CC2)c1` [Example 346] has a Ki of 107 nM.
With `Cc1ccccc1OC(CCN1CCC(c2cccc(NC(=O)C(C)C)c2)CC1)c1ccc(Cl)cc1` (stereo not drawn) [Example 126] the Ki was 13.8 nM.
For `CC(C)C(=O)Nc1cccc(C2CCN(CCC(Oc3c(F)c(F)c(F)c(F)c3F)c3ccc(F)cc3)CC2)c1` (stereo not drawn) [Example 132], the Ki was 41.7 nM.

Same assay, conditions: cloned rat MCH1 receptor; 0.08 nM [3H] Compound A; Peakr293 cell membranes; read-out: Ki (nM) rMCH1
Compound `COc1cccc(-n2cc(CN3CCC(c4cccc(NC(=O)C(C)C)c4)CC3)c3ccccc32)c1` [Example 451] has a Ki of 18.7 nM.
`Cc1ccccc1-c1cccc2c(CN3CCC(c4cccc(NC(=O)C(C)C)c4)CC3)c[nH]c12` [Example 524] was tested, and the Ki was 199 nM.
`O=C(CCCCN1CCC(c2cccc(NC(=O)C3CC3)c2)CC1)c1cccc(C(F)(F)F)c1` [Example 568] gave a Ki of 68.8 nM.
With `CC(C)C(=O)Nc1cccc(C2CCN(CCCCCC(Oc3ccc(F)cc3)c3ccccc3)CC2)c1` (stereo not drawn) [Example 909] the Ki was 10 nM.
For `Cc1ccc2[nH]c(-c3ccccc3)c(CCN3CCC(c4cccc(NC(=O)C(C)C)c4)CC3)c2c1` [Example 399], the Ki was 31.9 nM.
`CC(C)C(=O)Nc1cccc(C2CCN(CCCc3c(-c4cccc(I)c4)[nH]c4ccccc34)CC2)c1` [Example 737] was tested, and the Ki was 1 nM.
For `CC(C)C(=O)Nc1cccc(C2CCN(CC[C@H](NS(=O)(=O)c3cc(Cl)cc(Cl)c3O)c3ccccc3)CC2)c1` [Example 596], the Ki was 597 nM.
In the case of `CC(C)C(=O)Nc1cccc(C2CCN(CCCNS(=O)(=O)c3ccccc3F)CC2)c1` [Example 643], the Ki is reported as 130 nM.
In the case of `CC(C)C(=O)Nc1cccc(C2CCN(Cc3c[nH]c4c(-c5ccccc5F)cccc34)CC2)c1` [Example 516], the Ki is reported as 90.9 nM.
`CC(C)C(=O)Nc1cccc(C2CCN(CCCC/C(=N\Nc3ccc(OC(F)(F)F)cc3)c3ccc([N+](=O)[O-])cc3)CC2)c1` [Example 780] gave a Ki of 64.3 nM.
`CC(C)C(=O)Nc1cccc(C2CCN(CCCNC(=O)c3ccc(Oc4cc(Cl)cc(Cl)c4)o3)CC2)c1` [Example 642] gave a Ki of 8.3 nM.
`CC(C)C(=O)Nc1ccc(C2CCN(CCCCCn3ccc4ccccc43)CC2)cc1` [Example 825] showed a Ki of 601 nM.
`CC(C)C(=O)Nc1cccc(C2CCN(CCCc3ccncc3)CC2)c1` [Example 805] showed a Ki of 904 nM.
In the case of `CC(C)C(=O)Nc1cccc(C2CCN(CCCCCC(Oc3ccc(Cl)cc3)c3ccc(F)cc3)CC2)c1` (stereo not drawn) [Example 901], the Ki is reported as 8.2 nM.
`CC(C)C(=O)Nc1cccc(C2CCN(Cc3cn(-c4ccc(Cl)cc4)c4ccccc34)CC2)c1` [Example 459] gave a Ki of 10.4 nM.
With `CCC(=O)Nc1cccc(C2CCN(Cc3cn(-c4cccc(Cl)c4)c4ccccc34)CC2)c1` [Example 456] the Ki was 28 nM.
For `CC(C)C(=O)Nc1cccc(C2CCN(Cc3ccc4c(ccn4-c4ccccc4[N+](=O)[O-])c3)CC2)c1` [Example 851], the Ki was 27.4 nM.
In the case of `CC(C)C(=O)Nc1cccc(C2CCN(CCCc3c(-c4ccccc4Br)[nH]c4c3ccc3ccccc34)CC2)c1` [Example 781], the Ki is reported as 7.6 nM.
Compound `CC(C)C(=O)Nc1cccc(C2CCN(CCCNC(=S)NC(C)(C)C)CC2)c1` [Example 620] has a Ki of 223 nM.
Compound `COc1ccc(-n2cc(CN3CCC(c4cccc(NC(=O)C(C)C)c4)CC3)c3ccccc32)cc1` [Example 443] has a Ki of 23.4 nM.
With `CC(C)C(=O)Nc1ccc(C2CCN(CCCCCCn3ccc4ccccc43)CC2)cc1` [Example 831] the Ki was 570 nM.
Work on `CC(C)C(=O)Nc1cccc(C2CCN(CCCc3c(-c4ccccc4Cl)n(C)c4ccccc34)CC2)c1` [Example 735] yielded a Ki of 1.1 nM.
Compound `CC(C)C(=O)Nc1cccc(C2CCN(Cc3c(-c4ccc(F)cc4)[nH]c4ccccc34)CC2)c1` [Example 432] has a Ki of 198 nM.
`COc1cccc(-n2ccc3cccc(CN4CCC(c5cccc(NC(=O)C(C)C)c5)CC4)c32)c1` [Example 860] gave a Ki of 40.5 nM.
In the case of `CC1=C(C(=O)NCCCN2CCC(c3cccc(NC(=O)C(C)C)c3)CC2)C(c2ccc(F)cc2F)CC(=O)N1` (stereo not drawn) [Example 796], the Ki is reported as 43 nM.
`O=C(Nc1cccc(C2CCN(Cc3cn(-c4ccccc4Cl)c4ccccc34)CC2)c1)C1CC1` [Example 457] showed a Ki of 27.4 nM.
For `CC(C)C(=O)Nc1cccc(C2CCN(CCCc3c(-c4ccc(Cl)cc4)n(-c4ccccc4)c4ccccc34)CC2)c1` [Example 721], the Ki was 75.3 nM.
`CC(=O)c1cccc(OC(CCCCN2CCC(c3cccc(NC(=O)C(C)C)c3)CC2)c2ccccc2)c1` (stereo not drawn) [Example 927] was tested, and the Ki was 60.7 nM.
Compound `CCC(=O)Nc1cccc(C2CCN(CCCC(=O)c3ccc(C)cc3)CC2)c1` [Example 542] has a Ki of 31.3 nM.
In the case of `CC(C)C(=O)Nc1cccc(C2CCN(Cc3c[nH]c4ccc([N+](=O)[O-])cc34)CC2)c1` [Example 429], the Ki is reported as 121 nM.
Compound `CC(C)C(=O)Nc1cccc(C2CCN(CCCc3c(-c4ccccc4Cl)[nH]c4c3ccc3ccccc34)CC2)c1` [Example 732] has a Ki of 5.8 nM.
`Cc1cccc(-n2ccc3cccc(CN4CCC(c5cccc(NC(=O)C(C)C)c5)CC4)c32)c1C` [Example 878] showed a Ki of 169 nM.
In the case of `COC(=O)c1ccccc1-n1ccc2cc(CN3CCC(c4cccc(NC(=O)C(C)C)c4)CC3)ccc21` [Example 843, METHYL 2-[5-({4-[3-(ISOBUTYRYLAMINO)PHENYL]-1-PIPERIDINYL}METHYL)-1H-INDOL-1-YL]BENZOATE], the Ki is reported as 15.5 nM.
Work on `CC(C)C(=O)Nc1cccc(C2CCN(CCCCCCNC(=O)Nc3ccc(Cl)cc3Cl)CC2)c1` [Example 632] yielded a Ki of 76.6 nM.
With `CC(C)C(=O)Nc1cccc(C2CCN(Cc3cccc4cc[nH]c34)CC2)c1` [Example 832] the Ki was 614 nM.
`CC(C)C(=O)Nc1cccc(C2CCN(Cc3cccc4c3ccn4-c3ccncc3)CC2)c1` [Example 869] was tested, and the Ki was 431 nM.
Compound `CC(C)C(=O)Nc1cccc(C2CCN(Cc3cc4ccccc4n3C)CC2)c1` [Example 829] has a Ki of 228 nM.
Compound `CC(=O)c1cccc(OC(CCCCCN2CCC(c3cccc(NC(=O)C(C)C)c3)CC2)c2ccccc2F)c1` (stereo not drawn) [Example 888] has a Ki of 19.8 nM.
`O=C(Nc1cccc(C2CCN(Cc3cn(-c4ccc(Cl)cc4)c4ccccc34)CC2)c1)C1CC1` [Example 462] showed a Ki of 12.4 nM.
For `COc1ccc(OC(CCCCCN2CCC(c3cccc(NC(=O)C(C)C)c3)CC2)c2ccc(F)cc2)cc1` (stereo not drawn) [Example 907], the Ki was 3.1 nM.
Work on `CC(C)C(=O)Nc1cccc(C2CCN(CCCNC(=O)Nc3ccc(F)cc3)CC2)c1` [Example 613] yielded a Ki of 34.9 nM.
`CC(C)C(=O)Nc1cccc(C2CCN(CCCc3c(-c4ccc(C(F)(F)F)cc4)[nH]c4ccccc34)CC2)c1` [Example 684] showed a Ki of 5.4 nM.
